Assay results taken from ChEMBL document CHEMBL1201862, “PubChem BioAssay data set” (2004).
Active and inactive are the calls of the source.

How the values were obtained:
[1] = THP-1 cell cytotoxicity, dose response, cytotoxicity control for non-replicating M. tuberculosis project (AID 489025); format: functional
[2] = molecular target: T1, Short transient receptor potential channel 4 (Mus musculus, UniProt Q9QUQ5); test: mouse TRPC4 channel inhibitors, dose response, cell-based, HEK293 TRPC4/mu-opioid, Fluo-4 calcium (AID 434942); format: functional;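 also: potency of inhibitors blocking the TRPC4 calcium response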
T1 sequence (Q9QUQ5 whole entry): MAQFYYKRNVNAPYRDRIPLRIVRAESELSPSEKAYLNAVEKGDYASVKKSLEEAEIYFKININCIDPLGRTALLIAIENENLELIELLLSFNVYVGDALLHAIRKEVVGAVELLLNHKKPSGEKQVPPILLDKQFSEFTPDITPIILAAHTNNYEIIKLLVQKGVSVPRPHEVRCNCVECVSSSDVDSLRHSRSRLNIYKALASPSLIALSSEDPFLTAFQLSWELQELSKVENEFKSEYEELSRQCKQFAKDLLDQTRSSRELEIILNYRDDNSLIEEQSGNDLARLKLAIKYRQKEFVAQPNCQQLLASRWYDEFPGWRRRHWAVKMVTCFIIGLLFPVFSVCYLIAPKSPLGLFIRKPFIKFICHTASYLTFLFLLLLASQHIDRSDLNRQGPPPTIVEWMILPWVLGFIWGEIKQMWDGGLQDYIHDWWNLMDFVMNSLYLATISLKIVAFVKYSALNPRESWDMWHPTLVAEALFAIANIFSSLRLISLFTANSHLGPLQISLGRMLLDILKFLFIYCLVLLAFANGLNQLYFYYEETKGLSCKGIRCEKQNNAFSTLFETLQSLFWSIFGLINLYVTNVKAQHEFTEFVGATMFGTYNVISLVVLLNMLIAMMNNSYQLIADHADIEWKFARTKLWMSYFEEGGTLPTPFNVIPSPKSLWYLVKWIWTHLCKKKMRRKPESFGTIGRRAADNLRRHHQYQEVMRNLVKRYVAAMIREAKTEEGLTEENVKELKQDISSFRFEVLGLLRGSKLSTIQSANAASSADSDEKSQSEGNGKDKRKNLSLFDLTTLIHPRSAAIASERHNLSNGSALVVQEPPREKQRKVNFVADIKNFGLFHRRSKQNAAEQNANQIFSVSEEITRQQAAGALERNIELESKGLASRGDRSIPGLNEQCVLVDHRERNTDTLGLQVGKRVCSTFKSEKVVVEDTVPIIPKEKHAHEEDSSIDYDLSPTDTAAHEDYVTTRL

[3] = HepG2 cell cytotoxicity, dose response, cytotoxicity control for non-replicating M. tuberculosis project (AID 489018); format: functional; settings: Mycobacterium tuberculosis
[4] = Vero E6 cell cytotoxicity, dose response, cytotoxicity control for non-replicating M. tuberculosis project, secondary assay (AID 492998); format: functional, VeroE6; settings: Vero C1008
cells = format: functional
[5] = inhibitors of intracellular T. cruzi replication, confirmation, NIH3T3 host cells, beta-gal luminescence (AID 2044); format: functional, cell-based;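 also: intracellular parasites grown in NIH/3T3 mouse fibroblasts as host cells; luminescent beta-galactosidase reporter signal from transgenic T. cruzi replicating inside host cells; inhibitors lower the luminescence signal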
[6] = cytotoxicity toward NIH3T3 fibroblasts, dose response, counter-screen, cell-based, ATP luminescence, mouse fibroblasts (AID 2010); format: functional;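 also: cells exposed to compound for about 90 hours before reading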
Trypsin = Trypsin (Sus scrofa, UniProt P00761); test: porcine trypsin inhibitors, dose response, selectivity assay for Rce1 protease inhibitor project, biochemical, quenched peptide fluorescence, cherry-pick (AID 488789)
Sequence of Trypsin (P00761 whole entry): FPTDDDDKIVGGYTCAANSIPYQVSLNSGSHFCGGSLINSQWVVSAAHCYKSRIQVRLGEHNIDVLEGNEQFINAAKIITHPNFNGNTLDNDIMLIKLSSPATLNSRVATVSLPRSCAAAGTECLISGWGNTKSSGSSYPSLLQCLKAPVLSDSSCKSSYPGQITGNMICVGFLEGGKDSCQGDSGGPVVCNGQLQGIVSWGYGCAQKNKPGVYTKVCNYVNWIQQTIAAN

CAAX prenyl protease 2 = CAAX prenyl protease 2 (Saccharomyces cerevisiae S288c, UniProt Q03530); format: biochemical
Sequence of CAAX prenyl protease 2 (Q03530 whole entry): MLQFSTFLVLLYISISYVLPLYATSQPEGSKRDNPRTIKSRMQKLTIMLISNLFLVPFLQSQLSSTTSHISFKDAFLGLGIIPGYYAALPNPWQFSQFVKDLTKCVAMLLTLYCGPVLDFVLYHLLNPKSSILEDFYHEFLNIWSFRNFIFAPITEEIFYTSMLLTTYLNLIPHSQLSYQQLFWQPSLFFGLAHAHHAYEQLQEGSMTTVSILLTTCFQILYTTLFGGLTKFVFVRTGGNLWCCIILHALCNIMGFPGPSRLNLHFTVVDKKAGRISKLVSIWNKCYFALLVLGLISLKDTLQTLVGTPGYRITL

[7] = NIH-3T3 fibroblast cytotoxicity, dose response, cytotoxicity control, cell-based, fluorescence, Alamar Blue, secondary assay (AID 2327); format: functional;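 also: NIH-3T3 mouse fibroblasts cultured with fluconazole at 8 µg/mL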
[8] = Luminescence Cell-Based Dose Confirmation HTS to Identify Activators of 5'UTR Stem-Loop Driven Alpha-Synuclein mRNA Translation in H4 Neuroglioblastoma Cells. [Related pubchem assays: 1829 (Project Summary), 1814 (Primary HTS)]; format: functional
[9] = Luminescence Cell-Based Dose Response HTS to Identify Activators of Luciferase Translation or Activity in H4 […] Cells. [Related pubchem assays: 1829 (Project Summary), 1814 (Primary HTS)]; format: functional
H4 = test: Luminescence Cell-Based Dose Response HTS to Identify Activators of 5'UTR Stem-Loop Driven Prion Protein mRNA Translation in H4 Neuroglioblastoma Cells. [Related pubchem assays: 1829 (Project Summary), 1814 (Primary HTS)]; format: functional; settings: Homo sapiens
[10] = molecular target: T1, Short transient receptor potential channel 4; test: mouse TRPC4 channel activators, dose response, cell-based, HEK293 TRPC4/mu-opioid, Fluo-4 calcium (AID 434937); format: functional
Cytochrome P450 2C19 = Cytochrome P450 2C19 (Homo sapiens, UniProt P33261); test: Cytochrome panel assay with activity outcomes. Panel member name: p450-cyp2c19 Compounds with AC50 equal or less than 10 uM are considered active; format: functional; settings: read-out: AC50
Sequence of Cytochrome P450 2C19 (P33261 whole entry): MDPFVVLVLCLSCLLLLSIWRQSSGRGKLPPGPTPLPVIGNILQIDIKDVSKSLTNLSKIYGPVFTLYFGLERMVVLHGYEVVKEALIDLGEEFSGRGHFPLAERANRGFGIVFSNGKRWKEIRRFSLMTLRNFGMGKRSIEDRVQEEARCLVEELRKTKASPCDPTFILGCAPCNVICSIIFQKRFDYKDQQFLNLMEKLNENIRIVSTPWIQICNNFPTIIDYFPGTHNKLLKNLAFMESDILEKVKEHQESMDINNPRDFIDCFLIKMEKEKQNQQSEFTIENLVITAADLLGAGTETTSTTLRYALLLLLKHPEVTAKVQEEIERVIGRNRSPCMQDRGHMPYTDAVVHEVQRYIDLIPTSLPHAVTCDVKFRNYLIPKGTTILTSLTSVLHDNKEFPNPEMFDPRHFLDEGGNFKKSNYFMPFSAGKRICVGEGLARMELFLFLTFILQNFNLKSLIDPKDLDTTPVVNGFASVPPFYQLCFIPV

Cytochrome P450 3A4 = Cytochrome P450 3A4 (Homo sapiens, UniProt P08684);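 also: CYP3A4 tested as one member of a cytochrome P450 panel screen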
Sequence of Cytochrome P450 3A4 (P08684 whole entry): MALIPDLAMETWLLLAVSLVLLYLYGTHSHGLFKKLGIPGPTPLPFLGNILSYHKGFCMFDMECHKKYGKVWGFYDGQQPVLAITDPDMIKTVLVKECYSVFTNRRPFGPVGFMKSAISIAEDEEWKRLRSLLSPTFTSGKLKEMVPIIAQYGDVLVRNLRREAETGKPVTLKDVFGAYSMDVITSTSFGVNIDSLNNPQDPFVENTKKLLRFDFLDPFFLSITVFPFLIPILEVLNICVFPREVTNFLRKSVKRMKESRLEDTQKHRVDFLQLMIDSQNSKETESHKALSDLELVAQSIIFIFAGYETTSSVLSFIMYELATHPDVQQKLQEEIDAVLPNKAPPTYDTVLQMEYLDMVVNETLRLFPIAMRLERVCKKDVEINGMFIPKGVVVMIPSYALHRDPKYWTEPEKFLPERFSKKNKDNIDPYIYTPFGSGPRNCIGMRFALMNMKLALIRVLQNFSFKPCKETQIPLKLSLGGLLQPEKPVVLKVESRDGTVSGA

Cytochrome P450 2C9 = Cytochrome P450 2C9 (Homo sapiens, UniProt P11712)
Sequence of Cytochrome P450 2C9 (P11712 whole entry): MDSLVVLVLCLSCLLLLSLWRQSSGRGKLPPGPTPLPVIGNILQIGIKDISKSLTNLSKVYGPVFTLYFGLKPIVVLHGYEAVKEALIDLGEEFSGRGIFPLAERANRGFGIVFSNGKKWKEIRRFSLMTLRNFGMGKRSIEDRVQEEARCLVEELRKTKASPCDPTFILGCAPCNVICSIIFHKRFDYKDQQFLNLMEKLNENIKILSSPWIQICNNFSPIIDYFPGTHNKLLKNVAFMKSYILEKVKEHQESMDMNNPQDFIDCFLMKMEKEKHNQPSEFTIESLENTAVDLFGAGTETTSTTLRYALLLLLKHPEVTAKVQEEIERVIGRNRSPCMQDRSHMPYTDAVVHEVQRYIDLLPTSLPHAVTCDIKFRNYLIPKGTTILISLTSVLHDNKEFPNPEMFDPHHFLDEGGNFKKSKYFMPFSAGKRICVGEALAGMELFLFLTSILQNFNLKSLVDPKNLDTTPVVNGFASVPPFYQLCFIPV

[11] = molecular target: T2, E3 ubiquitin-protein ligase XIAP (Homo sapiens, UniProt P98170); test: Counter Screen using XIAP-Bir3 for Chemical Antagonists of Bir1/2 domains of IAP-family anti-apoptotic proteins. [Related pubchem assays (depositor defined):AID1018, AID1449, AID1514, AID1638, AID1749, AID1750, AID488957, AID488963]
T2 sequence (P98170 whole entry): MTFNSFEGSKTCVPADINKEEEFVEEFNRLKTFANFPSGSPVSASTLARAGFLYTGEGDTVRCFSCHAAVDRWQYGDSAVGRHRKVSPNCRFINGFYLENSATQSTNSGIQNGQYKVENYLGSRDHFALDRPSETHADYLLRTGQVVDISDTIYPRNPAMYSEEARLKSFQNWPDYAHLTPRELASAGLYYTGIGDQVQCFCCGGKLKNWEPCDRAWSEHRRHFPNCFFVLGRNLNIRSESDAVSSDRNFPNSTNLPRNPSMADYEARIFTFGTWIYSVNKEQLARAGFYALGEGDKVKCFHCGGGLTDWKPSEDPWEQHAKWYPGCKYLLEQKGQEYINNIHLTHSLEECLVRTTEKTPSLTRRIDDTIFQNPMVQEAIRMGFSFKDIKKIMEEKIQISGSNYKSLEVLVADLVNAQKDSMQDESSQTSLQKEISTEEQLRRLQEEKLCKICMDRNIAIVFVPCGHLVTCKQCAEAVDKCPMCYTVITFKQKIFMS

[12] = molecular target: T2, E3 ubiquitin-protein ligase XIAP; test: XIAP antagonists, biochemical, IAP family, fluorescence polarization (AID 1018); format: functional
[13] = molecular target: DNA dC->dU-editing enzyme APOBEC-3A (Homo sapiens, UniProt P31941); test: Dose Response confirmation of small molecule APOBEC3A DNA Deaminase Inhibitors via a fluorescence-based single-stranded DNA deaminase assay. [Related pubchem assays (depositor defined):AID493011, AID493024]; format: functional
Sequence of DNA dC->dU-editing enzyme APOBEC-3A (P31941 whole entry): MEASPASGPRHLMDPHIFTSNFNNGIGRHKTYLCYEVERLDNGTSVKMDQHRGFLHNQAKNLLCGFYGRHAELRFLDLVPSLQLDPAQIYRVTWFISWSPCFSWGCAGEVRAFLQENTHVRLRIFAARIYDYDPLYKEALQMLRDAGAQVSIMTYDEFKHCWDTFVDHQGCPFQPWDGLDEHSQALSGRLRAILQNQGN

[14] = molecular target: DNA dC->dU-editing enzyme APOBEC-3G (Homo sapiens, UniProt Q9HC16); format: functional;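 also: Dose-response counterscreen measuring inhibition of APOBEC3G DNA deaminase activity, run while confirming APOBEC3A inhibitors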
Sequence of DNA dC->dU-editing enzyme APOBEC-3G (Q9HC16 whole entry): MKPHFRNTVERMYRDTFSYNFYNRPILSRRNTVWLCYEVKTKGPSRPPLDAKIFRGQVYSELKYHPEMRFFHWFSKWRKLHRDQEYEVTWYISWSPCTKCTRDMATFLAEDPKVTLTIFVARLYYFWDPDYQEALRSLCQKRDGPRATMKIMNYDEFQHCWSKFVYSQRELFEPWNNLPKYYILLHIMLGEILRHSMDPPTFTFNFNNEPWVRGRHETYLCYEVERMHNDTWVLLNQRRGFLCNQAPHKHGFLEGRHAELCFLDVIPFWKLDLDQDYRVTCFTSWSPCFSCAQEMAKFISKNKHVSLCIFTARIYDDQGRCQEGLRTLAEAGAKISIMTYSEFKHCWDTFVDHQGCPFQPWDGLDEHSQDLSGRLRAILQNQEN

[15] = molecular target: Peroxisome proliferator-activated receptor gamma/Nuclear receptor coactivator 1 (Homo sapiens, UniProt P37231); test: (§1) TR-FRET dose response biochemical High Throughput Screening assay for agonists of the steroid receptor coactivator 1 (SRC-1) recruitment by the peroxisome proliferator-activated receptor gamma (PPAR gamma): non-selective agonists. [Related pubchem assays (depositor defined):AID1300, AID1808, AID504735, AID631]; format: protein assay
[16] = molecular target: Peroxisome proliferator-activated receptor gamma/Nuclear receptor coactivator 3 (Homo sapiens, UniProt P37231); test: as §1, with “3 (SRC-3)” for “1 (SRC-1)”, “assays: 1301 (Confirmation screen.), 1048 (Primary screen.)]” for “assays (depositor defined):AID1300, AID1808, AID504735, AID631]”; format: functional
[17] = molecular target: Peroxisome proliferator-activated receptor gamma/Nuclear receptor coactivator 2 (Homo sapiens, UniProt P37231); test: TR-FRET dose response biochemical High Throughput Screening assay for agonists of the steroid receptor coactivator 2 (SRC-2) recruitment by the peroxisome proliferator-activated receptor gamma (PPAR gamma): non-selective agonists. [Related pubchem assays: 1297, 1032 ]; format: functional
Coagulation factor XII = molecular target: T3, Coagulation factor XII (Homo sapiens, UniProt P00748); format: functional;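 also: activated factor XIIa alpha cleaving a fluorogenic AMC peptide substrate; inhibitor potency from loss of enzyme activity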
T3 sequence (P00748 whole entry): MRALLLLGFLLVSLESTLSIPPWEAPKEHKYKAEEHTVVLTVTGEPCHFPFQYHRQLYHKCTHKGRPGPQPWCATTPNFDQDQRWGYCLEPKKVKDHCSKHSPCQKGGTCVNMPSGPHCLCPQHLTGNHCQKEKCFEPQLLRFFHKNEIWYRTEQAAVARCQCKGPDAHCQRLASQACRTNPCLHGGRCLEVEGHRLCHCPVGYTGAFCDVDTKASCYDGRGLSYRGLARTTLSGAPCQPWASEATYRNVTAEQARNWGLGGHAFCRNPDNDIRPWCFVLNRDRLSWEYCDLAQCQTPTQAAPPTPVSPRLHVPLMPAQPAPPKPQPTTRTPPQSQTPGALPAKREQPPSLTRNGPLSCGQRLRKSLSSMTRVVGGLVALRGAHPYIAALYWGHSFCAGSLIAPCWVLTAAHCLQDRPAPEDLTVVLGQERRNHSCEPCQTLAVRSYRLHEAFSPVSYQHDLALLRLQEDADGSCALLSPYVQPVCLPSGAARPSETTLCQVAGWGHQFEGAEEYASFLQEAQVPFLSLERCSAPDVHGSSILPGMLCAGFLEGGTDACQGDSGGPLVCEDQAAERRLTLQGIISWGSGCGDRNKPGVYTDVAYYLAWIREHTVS

[18] = molecular target: G-protein coupled receptor 55 (Homo sapiens, UniProt Q9Y2T6); test: GPR55 antagonists blocking LPI-driven arrestin recruitment, primary screen, imaging, U2OS, beta-arrestin-GFP, LPI agonist (AID 2013); format: functional;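 also: antagonist potency measured as reduced agonist-driven arrestin aggregation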
Sequence of G-protein coupled receptor 55 (Q9Y2T6 whole entry, the tested form may be a part): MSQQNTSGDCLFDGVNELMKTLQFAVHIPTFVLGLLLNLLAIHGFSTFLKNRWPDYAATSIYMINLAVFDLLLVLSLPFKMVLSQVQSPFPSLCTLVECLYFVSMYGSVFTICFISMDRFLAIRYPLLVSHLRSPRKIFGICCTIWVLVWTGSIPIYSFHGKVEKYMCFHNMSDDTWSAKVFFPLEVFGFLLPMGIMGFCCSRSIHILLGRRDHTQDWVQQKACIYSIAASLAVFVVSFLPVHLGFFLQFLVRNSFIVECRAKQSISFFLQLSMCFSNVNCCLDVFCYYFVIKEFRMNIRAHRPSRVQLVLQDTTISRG

[19] = molecular target: T4, Carboxy-terminal domain RNA polymerase II polypeptide A small phosphatase 1 (Homo sapiens, UniProt Q9GZU7); test: inhibitors of CTDSP1, concentration-response testing, biochemical assay, absorbance-based, actives from ultra-high-throughput screening (AID 540297); format: functional
T4 sequence (Q9GZU7 whole entry): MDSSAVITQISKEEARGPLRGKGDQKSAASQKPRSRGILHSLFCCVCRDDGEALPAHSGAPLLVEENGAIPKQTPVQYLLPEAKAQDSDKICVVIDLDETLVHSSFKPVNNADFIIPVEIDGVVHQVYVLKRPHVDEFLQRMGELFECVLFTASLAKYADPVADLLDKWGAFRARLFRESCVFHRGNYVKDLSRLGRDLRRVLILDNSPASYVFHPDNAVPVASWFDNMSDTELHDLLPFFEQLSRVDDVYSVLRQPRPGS

[20] = molecular target: T5, Tyrosine-protein phosphatase non-receptor type 7 (Homo sapiens, UniProt P35236); test: SAR analysis of chemical inhibitors of HePTP using a Fluorescent assay - Set 2. [Related pubchem assays (depositor defined):AID1059, AID1077, AID1661, AID2085, AID521]; format: functional
T5 sequence (P35236 whole entry): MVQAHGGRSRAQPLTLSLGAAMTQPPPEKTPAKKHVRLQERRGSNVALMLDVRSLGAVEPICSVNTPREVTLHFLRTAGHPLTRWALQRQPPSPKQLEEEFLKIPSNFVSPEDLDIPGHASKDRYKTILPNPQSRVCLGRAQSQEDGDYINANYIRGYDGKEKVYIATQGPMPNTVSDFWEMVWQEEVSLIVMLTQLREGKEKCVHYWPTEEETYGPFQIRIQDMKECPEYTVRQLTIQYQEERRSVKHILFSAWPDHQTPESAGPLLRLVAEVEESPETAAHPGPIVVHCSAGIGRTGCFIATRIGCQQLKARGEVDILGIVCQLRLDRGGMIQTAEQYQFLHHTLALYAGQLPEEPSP

[21] = molecular target: Dual specificity protein phosphatase 3 (Homo sapiens, UniProt P51452); test: SAR VHR1 Fluorescent Assay for In Vitro dose response studies Set 2. [Related pubchem assays (depositor defined):AID1654, AID1661, AID1878]; format: functional
Sequence of Dual specificity protein phosphatase 3 (P51452 whole entry): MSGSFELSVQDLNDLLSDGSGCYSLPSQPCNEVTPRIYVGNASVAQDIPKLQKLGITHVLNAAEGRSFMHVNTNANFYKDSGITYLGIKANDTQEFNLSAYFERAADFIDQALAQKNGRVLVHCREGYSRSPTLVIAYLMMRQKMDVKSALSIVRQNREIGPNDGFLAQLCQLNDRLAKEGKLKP

[22] = molecular target: T5, Tyrosine-protein phosphatase non-receptor type 7; test: redox-dependent HePTP inhibition, mechanism study, biochemical, fluorescence (AID 2068); format: functional

CN1CCN(c2ccc(NC(=O)c3ccc(-c4ccc(Cl)cc4)o3)cc2)CC1
CC50 [1]: 17.6 µM (active) | EC50 [2]: 66.7 nM (active) | CC50 [3]: 8.12 µM (active) | CC50 [4]: 17.2 µM (active) | IC50 (cells): 3.04 µM (active)

O=C(CSc1nc2ccccc2s1)N1N=C(c2cccs2)CC1c1ccc(F)cc1 (stereo not given)
EC50 [5]: 1.06 µM (active) | EC50 [6]: > 60 µM (not active) | AC50 (Trypsin): 24.5 µM (active) | AC50 (CAAX prenyl protease 2): 12.1 µM (active)

Cc1cc(C)n(-c2nc(SCCN(C)C)c3c4c(sc3n2)CCCC4)n1
EC50 [7]: 56 µM (active) | EC50 [8]: > 120 µM (not active) | EC50 [9]: > 120 µM (not active) | EC50 (H4): > 120 µM (not active) | CC50 [1]: 13.5 µM (active) | CC50 [3]: 19.4 µM (active) | CC50 [4]: 6.93 µM (active) | EC50 [10]: 1.88 µM (active) | IC50 (cells): 9.58 µM (active) | AC50 (Cytochrome P450 2C19): 31.6 µM (inconclusive) | AC50 (Cytochrome P450 3A4): 17.8 µM (inconclusive) | AC50 (Cytochrome P450 2C9): 15.8 µM (inconclusive)

COc1ccc(C(=O)N(CN2CCCC2=O)c2ccccc2OC)cc1OC
IC50 [11]: > 100 µM (inactive) | IC50 [12]: > 100 µM (not active)

Cc1ccn(C)c(=N)c1
IC50 [13]: 7.71 µM (active) | IC50 [14]: 7.58 µM (active)

Cn1c(=O)cc(SCC(=O)NCCCN2CCOCC2)c2ccc(Cl)cc21
EC50 [15]: > 79.4 µM (inactive) | EC50 [16]: > 79.4 µM (not active) | EC50 [17]: > 79.4 µM (not active) | AC50 (Cytochrome P450 2C19): 10 µM (inconclusive)

CCn1nc(C)c(CNC(=O)c2cc(COc3ccc(F)cc3Cl)on2)c1C
IC50 (Coagulation factor XII): > 50 µM (inactive)

CCCCOc1ccccc1NC(=O)c1scc2c1OCCO2
IC50 [18]: 3.01 µM (active)

Clc1ccccc1CN1CCN(CCCc2ccccc2)CC1
IC50 (Coagulation factor XII): > 50 µM (inactive)

COc1ccc(-c2ccc3oc(-c4ccc(OC)cc4)c(-c4ccc(OC)cc4)c3c2)cc1
AC50 (CAAX prenyl protease 2): 18 µM (active)

Cc1cc(-c2ccccc2)nc2c(Br)c(C(=O)O)nn12
IC50 [13]: 25.2 µM (active) | IC50 [14]: 37.7 µM (active) | IC50 [19]: 2.44 µM (active)

COc1ccc(OC)c(C(=S)NCc2ccc(C(F)(F)F)cc2)c1
IC50 [20]: 38.4 µM (active) | IC50 [21]: 48.4 µM (active)

O=C(Nc1ccccc1)Nc1ccc2nc(-c3ccco3)c(-c3ccco3)nc2c1
IC50 [22]: 575 nM (active)

C#CCOc1c(Br)cc(/C=N\NC(=O)CN2CCOCC2)cc1OCC
IC50 [18]: 3.59 µM (active)
